# Results: patent US20120270819A1, “USE OF COMPOUNDS WITH SGLT-1/SGLT-2 INHIBITOR ACTIVITY FOR PRODUCING MEDICAMENTS FOR TREATMENT OF BONE DISEASE” (SANOFI, priority 2009, published 2012)
# Tested on: female Sprague-Dawley mature and young adult rats
# Experiment: Ex vivo peripheral quantitative computed tomography (pQCT) of right femur (metaphysis, diaphysis, length)
# Format: in vivo, rat
# Settings: Young Adults; for pQCT femur (diaphysis) CSMI / pQCT femur (diaphysis) Cortical Area / pQCT femur (diaphysis) Cortical BMC / pQCT femur (diaphysis) Cortical BMD / pQCT femur (diaphysis) Cortical Thickness / pQCT femur (diaphysis) Endosteal Circumference / pQCT femur (diaphysis) Periosteal Circumference / pQCT femur (diaphysis) Total Area / pQCT femur (diaphysis) Total BMC / pQCT femur (diaphysis) Total BMD / pQCT femur Length / pQCT femur metaphysis C/SC (Cortical/Subcortical) BMC / pQCT femur metaphysis C/SC (Cortical/Subcortical) BMD / pQCT femur metaphysis Total Area / pQCT femur metaphysis Total BMC / pQCT femur metaphysis Total BMD / pQCT femur metaphysis Trabecular BMC / pQCT femur metaphysis Trabecular BMD: mean
# Protocol: The following were evaluated: clinical signs (at least weekly), body weight (weekly), food consumption (weekly), hormones (Days 13 and 27), serum and urinary biochemical markers of bone turnover (Days 13 and 27), serum chemistry (at necropsy), bone densitometry by dual energy X-ray absorptiometry (DXA) and peripheral quantitative computed tomography (pQCT) (Week 2 and 4, as well as ex vivo), macroscopic observations at necropsy, organ weights, histopathology, biomechanical strength testing and femoral length measurements.
# 3.2 Ex Vivo Peripheral Quantitative Computed Tomography (pQCT)
# Peripheral QCT scans were performed ex vivo using an XCT Research SA or SA+ bone scanner with software version 5.50D. Scans were obtained for the right femur, L3 and L4 lumbar vertebra for all animals euthanized at the end of the treatment period as well as two found dead animals. These two animals were scanned twice due to technical oversight, however only the first scans obtained were reported and the second scans were kept with the study file, this had no impact on the study as both scans were considered equivalent.
# For the femurs, the scanned site was at the expected 3-point bending fracture site (diaphysis). This site was analyzed using Cortmode 2 for cortical bone measurements only (Table 5). An additional slice was obtained in the metaphysis. The metaphysis scan was not performed for the femur of three animals due to condyles detachment from the femur during trimming.
# The femoral length was measured as part of the ex vivo pQCT scanning procedures and was reported for the right femur of all animals with the exception of 3 animas due to damaged femoral condyles.
# All analyses were performed using the LOOP option of the analysis software. All other data generated as a result of the LOOP option were retained with the raw data but not reported. The most appropriate analysis mode for the femur and the lumbar vertebrae was used and documented in the raw data and the analysis details are presented in Table 6. All scan analysis data was retained and re-analyses documented.
structure (smiles),measurement,setting,value
COc1ccc(Cc2c(OC3OC(CO)C(F)C(O)C3O)n[nH]c2C(F)(F)F)cc1 (stereo not drawn) [Example 5 of formula II],"pQCT femur (diaphysis) CSMI, percent difference from Vehicle Control",10 mg/kg/day,−1.3%
same,"pQCT femur (diaphysis) Cortical Area, percent difference from Vehicle Control",10 mg/kg/day,−0.4%
same,"pQCT femur (diaphysis) Cortical BMC, percent difference from Vehicle Control",10 mg/kg/day,−0.8%
same,"pQCT femur (diaphysis) Cortical BMD, percent difference from Vehicle Control",10 mg/kg/day,−0.4%
same,"pQCT femur (diaphysis) Cortical Thickness, percent difference from Vehicle Control",10 mg/kg/day,0.15%
same,"pQCT femur (diaphysis) Endosteal Circumference, percent difference from Vehicle Control",10 mg/kg/day,−0.7%
same,"pQCT femur (diaphysis) Periosteal Circumference, percent difference from Vehicle Control",10 mg/kg/day,−1.2%
same,"pQCT femur (diaphysis) Total Area, percent difference from Vehicle Control",10 mg/kg/day,−0.9%
same,"pQCT femur (diaphysis) Total BMC, percent difference from Vehicle Control",10 mg/kg/day,0.2%
same,"pQCT femur (diaphysis) Total BMD, percent difference from Vehicle Control",10 mg/kg/day,1.1%
same,"pQCT femur Length, percent difference from Vehicle Control",10 mg/kg/day,−3.8%
same,"pQCT femur metaphysis C/SC BMC, percent difference from Vehicle Control",10 mg/kg/day,10.7%
same,"pQCT femur metaphysis C/SC BMD, percent difference from Vehicle Control",10 mg/kg/day,6.8%
same,"pQCT femur metaphysis Total Area, percent difference from Vehicle Control",10 mg/kg/day,3.7%
same,"pQCT femur metaphysis Total BMC, percent difference from Vehicle Control",10 mg/kg/day,16.7%
same,"pQCT femur metaphysis Total BMD, percent difference from Vehicle Control",10 mg/kg/day,12.6%
same,"pQCT femur metaphysis Trabecular BMC, percent difference from Vehicle Control",10 mg/kg/day,41.4%
same,"pQCT femur metaphysis Trabecular BMD, percent difference from Vehicle Control",10 mg/kg/day,36.4%
same,pQCT femur (diaphysis) CSMI,10 mg/kg/day,3.8 mm^4
same,pQCT femur (diaphysis) Cortical Area,10 mg/kg/day,4.7 mm^2
same,pQCT femur (diaphysis) Cortical BMC,10 mg/kg/day,5.6 mg/mm
same,pQCT femur (diaphysis) Cortical BMD,10 mg/kg/day,1182.8 mg/cm^3
same,pQCT femur (diaphysis) Cortical Thickness,10 mg/kg/day,0.54 mm
same,pQCT femur (diaphysis) Endosteal Circumference,10 mg/kg/day,6.9 mm
same,pQCT femur (diaphysis) Periosteal Circumference,10 mg/kg/day,10.2 mm
same,pQCT femur (diaphysis) Total Area,10 mg/kg/day,8.6 mm^2
same,pQCT femur (diaphysis) Total BMC,10 mg/kg/day,6.2 mg/mm
same,pQCT femur (diaphysis) Total BMD,10 mg/kg/day,721.8 mg/cm^3
same,pQCT femur Length,10 mg/kg/day,31.9 mm
same,pQCT femur metaphysis C/SC (Cortical/Subcortical) BMC,10 mg/kg/day,7.9 mg/mm
same,pQCT femur metaphysis C/SC (Cortical/Subcortical) BMD,10 mg/kg/day,877.1 mg/cm^3
same,pQCT femur metaphysis Total Area,10 mg/kg/day,15.0 mm^2
same,pQCT femur metaphysis Total BMC,10 mg/kg/day,10.3 mg/mm
same,pQCT femur metaphysis Total BMD,10 mg/kg/day,690.2 mg/cm^3
same,pQCT femur metaphysis Trabecular BMC,10 mg/kg/day,2.5 mg/mm
same,pQCT femur metaphysis Trabecular BMD,10 mg/kg/day,410.7 mg/cm^3
same,"pQCT femur (diaphysis) CSMI, percent difference from Vehicle Control",50 mg/kg/day,0.6%
same,"pQCT femur (diaphysis) Cortical Area, percent difference from Vehicle Control",50 mg/kg/day,−0.6%
same,"pQCT femur (diaphysis) Cortical BMC, percent difference from Vehicle Control",50 mg/kg/day,−0.7%
same,"pQCT femur (diaphysis) Cortical BMD, percent difference from Vehicle Control",50 mg/kg/day,−0.1%
same,"pQCT femur (diaphysis) Cortical Thickness, percent difference from Vehicle Control",50 mg/kg/day,−0.01%
same,"pQCT femur (diaphysis) Endosteal Circumference, percent difference from Vehicle Control",50 mg/kg/day,−0.7%
same,"pQCT femur (diaphysis) Periosteal Circumference, percent difference from Vehicle Control",50 mg/kg/day,−0.3%
same,"pQCT femur (diaphysis) Total Area, percent difference from Vehicle Control",50 mg/kg/day,−0.7%
same,"pQCT femur (diaphysis) Total BMC, percent difference from Vehicle Control",50 mg/kg/day,0.0%
same,"pQCT femur (diaphysis) Total BMD, percent difference from Vehicle Control",50 mg/kg/day,0.9%
same,"pQCT femur Length, percent difference from Vehicle Control",50 mg/kg/day,−4.9%
same,"pQCT femur metaphysis C/SC BMC, percent difference from Vehicle Control",50 mg/kg/day,18.4%
same,"pQCT femur metaphysis C/SC BMD, percent difference from Vehicle Control",50 mg/kg/day,13.6%
same,"pQCT femur metaphysis Total Area, percent difference from Vehicle Control",50 mg/kg/day,4.3%
same,"pQCT femur metaphysis Total BMC, percent difference from Vehicle Control",50 mg/kg/day,33.0%
same,"pQCT femur metaphysis Total BMD, percent difference from Vehicle Control",50 mg/kg/day,27.6%
same,"pQCT femur metaphysis Trabecular BMC, percent difference from Vehicle Control",50 mg/kg/day,92.0%
same,"pQCT femur metaphysis Trabecular BMD, percent difference from Vehicle Control",50 mg/kg/day,84.7%
same,pQCT femur (diaphysis) CSMI,50 mg/kg/day,3.9 mm^4
same,pQCT femur (diaphysis) Cortical Area,50 mg/kg/day,4.7 mm^2
same,pQCT femur (diaphysis) Cortical BMC,50 mg/kg/day,5.6 mg/mm
same,pQCT femur (diaphysis) Cortical BMD,50 mg/kg/day,1186.1 mg/cm^3
same,pQCT femur (diaphysis) Cortical Thickness,50 mg/kg/day,0.54 mm
same,pQCT femur (diaphysis) Endosteal Circumference,50 mg/kg/day,7.0 mm
same,pQCT femur (diaphysis) Periosteal Circumference,50 mg/kg/day,10.2 mm
same,pQCT femur (diaphysis) Total Area,50 mg/kg/day,8.6 mm^2
same,pQCT femur (diaphysis) Total BMC,50 mg/kg/day,6.2 mg/mm
same,pQCT femur (diaphysis) Total BMD,50 mg/kg/day,720.6 mg/cm^3
same,pQCT femur Length,50 mg/kg/day,31.6 mm
same,pQCT femur metaphysis C/SC (Cortical/Subcortical) BMC,50 mg/kg/day,8.4 mg/mm
same,pQCT femur metaphysis C/SC (Cortical/Subcortical) BMD,50 mg/kg/day,932.6 mg/cm^3
same,pQCT femur metaphysis Total Area,50 mg/kg/day,15.1 mm^2
same,pQCT femur metaphysis Total BMC,50 mg/kg/day,11.8 mg/mm
same,pQCT femur metaphysis Total BMD,50 mg/kg/day,782.0 mg/cm^3
same,pQCT femur metaphysis Trabecular BMC,50 mg/kg/day,3.4 mg/mm
same,pQCT femur metaphysis Trabecular BMD,50 mg/kg/day,556.0 mg/cm^3
